Reference: patent publication US20240101599A1, “PEPTIDE, CELL GROWTH PROMOTER, PROTEIN PRODUCTION PROMOTER, CULTURE MEDIUM, CELL GROWTH METHOD USING PEPTIDE, AND PROTEIN PRODUCTION METHOD USING PEPTIDE” (Maruhachi Muramatsu, Inc., priority 2020, published 2024)
Peptide text beside a SMILES is read from it.

Assays:
[1] = tested on: CHO-K1; experiment: Relationship between number of days of cell growth of each peptide and cell number (absorbance); format: cell-based; settings: 1.1 mM GPP, 2.2 mM DGP, 2.1 mM GEK, 2.0 mM AGK, MEMα without FBS
Protocol: Peptides having the sequences of Gly-Pro-Pro (GPP), Asp-Gly-Pro (DGP), Gly-Glu-Lys (GEK), and Ala-Gly-Lys (AGK) were synthesized to prepare each peptide solution such that the concentration was a concentration at which the cell number increased the most within a range of 0 mM to 5 mM. In other words, Gly-Pro-Pro (GPP) was adjusted to 11 mM, Asp-Gly-Pro (DGP) was adjusted to 22 mM, Gly-Glu-Lys (GEK) was adjusted to 21 mM, and Ala-Gly-Lys (AGK) was adjusted to 20 mM, and an amount of 1/10 of the total culture medium volume was added to each well immediately before the cell culture test such that final concentrations were 1.1 mM, 2.2 mM, 2.1 mM, and 2.0 mM, respectively.
A cell suspension prepared such that CHO-K1 (RIKEN BioResource Research Center, cell number: RCB2330) was at 3×10^4 cells/mL was seeded in a 96-well plate at 100 μL/well and cultured in an incubator at 37° C. and 5% CO2 for 24 hours. As a culture medium, an MEMα culture medium (Gibco) containing 10% FBS was used.
After removing the culture medium from each well and washing with the MEMα culture medium (100 μL), 90 μL of a new MEMα culture medium was dispensed into each well, and each peptide solution (10 μL) was added (total 100 μL/well) to perform culture for 0 to 5 days. Every day, 10 μL/well of a viable cell count measurement reagent SF (Nacalai Tesque Inc.) was added, and a color reaction was carried out in an incubator at 37° C. and 5% CO2 for 2 hours to measure an absorbance at 450 nm with a plate reader. A reference wavelength was 630 nm. It was confirmed that the absorbance at 450 nm correlated with the cell number. A similar culture test was performed using a system containing neither peptide nor FBS as a comparative sample.
The above preparation, culture, and measurement were performed with n=3, and Table 12 and FIG. 12 show the absorbance and the standard deviation of each peptide solution for each day.

[2] = tested on: CHO-K1; experiment: Cell growth test of each peptide on coating agent for 5 days; format: cell-based; set-up: Viability, 1 / Viability, 2 / Viability, 3 / Viability, Mean: unit not given here; settings: 2.0 mM Ala-Gly-Lys, 2.1 mM Gly-Glu-Lys, 2.5 mM Gly-Gly-Gly, poly-L-lysine coating; for Cells cell count, Mean / Viability, Mean: mean n=3, 2.2 mM Asp-Gly-Pro; for Cells cell count, 1 / Viability, 1: replicate 1, 2.2 mM Asp-Gly-Pro; for Cells cell count, 2 / Viability, 2: replicate 2, 2.2 mM Asp-Gly-Pro; for Cells cell count, 3 / Viability, 3: replicate 3, 2.2 mM Asp-Gly-Pro
Protocol: Peptides having the sequences of Asp-Gly-Pro (DGP), Ala-Gly-Lys (AGK), Gly-Glu-Lys (GEK), and Gly-Gly-Gly (GGG) were synthesized to prepare each peptide solution such that the concentration was a concentration at which the cell number increased the most within a range of 0 mM to 5 mM. In other words, Asp-Gly-Pro (DGP) was adjusted to 22 mM, Ala-Gly-Lys (AGK) was adjusted to 20 mM, Gly-Glu-Lys (GEK) was adjusted to 21 mM, and Gly-Gly-Gly (GGG) was adjusted to 25 mM, and an amount of 1/10 of the total culture medium volume was added to each well immediately before the cell culture test such that final concentrations were 2.2 mM, 2.0 mM, 2.1 mM, and 2.5 mM, respectively. Poly-L-lysine (Peptide Institute, Inc., Poly-L-Lysine Hydrochloride, code: 3075) was prepared to 0.1 mg/mL, and 200 μL was dispensed into each well of a 24-well plate, which was left to stand in an incubator at 37° C. for 2 hours. After removing the residual liquid with an aspirator, rinsing was performed with distilled water, irradiation was performed with a UV lamp in a clean bench without a lid, and drying was performed overnight to sterilize. A cell suspension prepared such that CHO-K1 (RIKEN BioResource Research Center, cell number: RCB2330) was at 4×10^4 cells/mL was seeded in each well of a 24-well plate at 500 μL/well and cultured in an incubator at 37° C. and 5% CO2 for 24 hours. As a culture medium, an MEMα culture medium (Gibco) containing 10% FBS was used.
After removing the culture medium from each well and washing with the MEMα culture medium (500 μL), 450 μL of a new MEMα culture medium was dispensed into each well, and each peptide solution (50 μL) was added (total 500 μL/well) to perform culture for 5 days. The cells were recovered to count the cell number. A similar culture test was performed using a system containing neither peptide nor FBS as a comparative sample.
The culture medium in each well was recovered in a 1.5 mL tube to be rinsed with 200 μL of MEMα, and the rinsed liquid was also recovered in the same 1.5 mL tube. Thereafter, 100 μL of trypsin was added and incubated for 3 minutes. After rinsing with 300 μL of MEMα containing 10% FBS, the rinsed liquid was also recovered in the same 1.5 mL tube. After rinsing again with 200 μL of MEMα containing 10% FBS, the rinsed liquid was also recovered in the same 1.5 mL tube.
A centrifugation operation was performed on the cells recovered in the 1.5 mL tube. The centrifugation conditions were 1,000 rpm, 10 minutes, and 4° C.
The supernatant was removed, and 300 μL of Cold PBS (phosphate buffered saline) was added to perform a centrifugation operation under the same conditions. The present operation was repeated twice.
Suspension was carried out with 100 μL of Binding Buffer, and 2 μL of propidium iodide (PI) was added and stirred in the tube to cause a reaction for 15 minutes at room temperature and with light shielding. Thereafter, the viable cell count and the cell viability were measured with a flow cytometer.
The above preparation, culture, and measurement were performed with n=3. Table 15 and FIG. 15 show the viable cell count in each peptide solution, and Table 16 and FIG. 16 show the cell viability in each peptide solution.

Compound	OD450 (average value n = 3) ([1]; Day 0)	OD450 (average value n = 3) ([1]; Day 1)	OD450 (average value n = 3) ([1]; Day 2)	OD450 (average value n = 3) ([1]; Day 3)	OD450 (average value n = 3) ([1]; Day 4)	OD450 (average value n = 3) ([1]; Day 5)	Cells cell count, Mean [2]	Viability, Mean [2]	Cells cell count, 1 [2]	Viability, 1 [2]	Cells cell count, 2 [2]	Viability, 2 [2]	Cells cell count, 3 [2]	Viability, 3 [2]
C[C@H](N)C(=O)NCC(=O)N[C@@H](CCCCN)C(=O)O [AGK, Ala-Gly-Lys] (H-Ala-Gly-Lys-OH; N-terminus and C-terminus assumed)	0.1757	0.4577	0.7440	0.7997	1.0263	1.0620	2.6217 ×10^4	25.0	2.6860 ×10^4	26.4	3.0605 ×10^4	26.4	2.1185 ×10^4	22.1
NCCCC[C@H](NC(=O)[C@H](CCC(=O)O)NC(=O)CN)C(=O)O [GEK, Gly-Glu-Lys] (H-Gly-Glu-Lys-OH; N-terminus and C-terminus assumed)	0.1613	0.4280	0.6043	0.7300	0.9023	0.9107	16.5830 ×10^4	90.3	15.7190 ×10^4	90.2	16.9875 ×10^4	90.3	17.0425 ×10^4	90.5
Asp-Gly-Pro [DGP]	0.1607	0.4507	0.6840	0.7700	0.9313	0.9363	14.9353 ×10^4	89.6	15.8220 ×10^4	91.5	14.8590 ×10^4	91.2	14.1250 ×10^4	86.0
Gly-Pro-Pro [GPP]	0.2023	0.5267	0.7083	0.8350	1.0227	0.9003								
